IC50 data for nine molecules are collected here from patent US8481540B2, “Inhibitors of bruton's tyrosine kinase” (Hoffmann-La Roche Inc., priority 2010, dated 2013).

The test system of the first assay is B cells in human blood. In words: Inhibition of B cell activation in whole blood measured by CD69 expression. It counts as cell-based. As to conditions: CD69-positive, CD20-positive cells after anti-IgM stimulation, human whole blood, 20 hours, read-out: Human Whole Blood. How it is done:
Inhibition of B Cell Activation in Whole Blood Measured by CD69 Expression
A procedure to test the ability of Btk inhibitors to suppress B cell receptor-mediated activation of B cells in human blood is as follows:
Human whole blood (HWB) is obtained from healthy volunteers, with the following restrictions: 24 hr drug-free, non-smokers. Blood is collected by venipuncture into Vacutainer tubes anticoagulated with sodium heparin. Test compounds are diluted to […] the desired starting drug concentration in PBS (20×), followed by three-fold serial dilutions in 10% DMSO in PBS to produce a nine point dose-response curve. 5.5 μl of each compound dilution is added in duplicate to a 2 ml96-well V bottom plate (Analytical Sales and Services, #59623-23); 5.5 μl of 10% DMSO in PBS is added to control and no-stimulus wells. HWB (100 μl) is added to each well, and after mixing the plates are incubated at 37 C, 5% CO2, 100% humidity for 30 minutes. Goat F(ab′)2 anti-human IgM (Southern Biotech, #2022-14) (10 μl of a […] solution, 50 μg/ml final concentration) is added to each well (except the no-stimulus wells) with mixing and the plates are incubated for an additional 20 hours.
At the end of the 20 hour incubation, samples are incubated with florescent-probe-labeled anti-bodies (15 μl PE Mouse anti-Human CD20, BD Pharmingen, #555623, and/or 20 ul APC Mouse anti-Human CD69, BD Pharmingen #555533) for 30 minutes, at 37 C, 5% CO2, 100% humidity. Included are induced control, unstained and single stains for compensation adjustments and initial voltage settings. Samples are then lysed with 1 ml of 1× Pharmingen Lyse Buffer (BD Pharmingen #555899), and plates are centrifuged at 1800 rpm for 5 minutes. Supernatants are removed via suction and the remaining pellets are lysed again with another 1 ml of 1× Pharmingen Lyse Buffer, and plates are spun down as before. Supernatants are aspirated and remaining pellets are washed in FACs buffer (PBS+1% FBS). After a final spin, the supernantants are removed and pellets are resuspended in 180 μl of FACs buffer. Samples are transferred to a 96 well plate suitable to be run on the HTS 96 well system on the BD LSR II flow cytometer.
Using appropriate excitation and emission wavelengths for the fluorophores used, data are acquired and percent positive cell values are obtained using Cell Quest Software. Results are initially analyzed by FACS analysis software (Flow Jo). […] The IC50 values are calculated using XLfit software version 3, equation 201.
Representative compound data for this assay are listed below in Table II.
Turning to `CN1CCC[C@@H]1c1ccc(Nc2cc(-c3cccc(-n4ncc5cc(C(C)(C)C)cc(F)c5c4=O)c3CO)nn(C)c2=O)nc1` [I-19, 6-tert-Butyl-8-fluoro-2-(2-hydroxymethyl-3-{1-methyl-5-[5-((R)-1-methyl-pyrrolidin-2-yl)-pyridin-2-ylamino]-6-oxo-1,6-dihydro-pyridazin-3-yl}-phenyl)-2H-phthalazin-1-one], the IC50 is 7 nM.

Take `Cc1cc(Nc2cc(-c3cccc(-n4ncc5cc(C(C)(C)C)cc(F)c5c4=O)c3CO)nn(C)c2=O)nn1C` [I-31, 6-tert-Butyl-2-{3-[5-(1,5-dimethyl-1H-pyrazol-3-ylamino)-1-methyl-6-oxo-1,6-dihydro-pyridazin-3-yl]-2-hydroxymethyl-phenyl}-8-fluoro-2H-phthalazin-1-one]: the IC50 is 32 nM.

Consider `CN1CC[C@@H](c2ccc(Nc3cc(-c4cccc(-n5ccc6cc(C(C)(C)C#N)cc(F)c6c5=O)c4CO)nn(C)c3=O)nc2)C1` [I-77, 2-[8-Fluoro-2-(2-hydroxymethyl-3-{1-methyl-5-[5-((S)-1-methyl-pyrrolidin-3-yl)-pyridin-2-ylamino]-6-oxo-1,6-dihydro-pyridazin-3-yl}-phenyl)-1-oxo-1,2-dihydro-isoquinolin-6-yl]-2-methyl-propionitrile], for which the IC50 came to 123 nM.

In the case of `CCS(=O)(=O)c1ccc(Nc2cc(-c3cccc(-n4ncc5cc(C(C)(C)C)cc(F)c5c4=O)c3CO)nn(C)c2=O)nc1` [I-23, 6-tert-Butyl-2-{3-[5-(5-ethanesulfonyl-pyridin-2-ylamino)-1-methyl-6-oxo-1,6-dihydro-pyridazin-3-yl]-2-hydroxymethyl-phenyl}-8-fluoro-2H-phthalazin-1-one], the IC50 was determined as 60 nM.

Take `Cn1nc(-c2cccc(-n3ncc4cc(C(C)(C)C)cc(F)c4c3=O)c2CO)cc(Nc2ccc(OC(C)(C)CO)cn2)c1=O` [I-12, 6-tert-butyl-8-fluoro-2-(3-{5-[5-(2-hydroxy-1,1-dimethyl-ethoxy)-pyridin-2-ylamino]-1-methyl-6-oxo-1,6-dihydro-pyridazin-3-yl}-2-hydroxymethyl-phenyl)-2H-phthalazin-1-one]: the IC50 was determined as 52 nM.

With `COCCN(C)Cc1ccc(Nc2cc(-c3cccc(-n4ncc5cc(C(C)(C)C)cc(F)c5c4=O)c3CO)nn(C)c2=O)nc1` [I-44, 6-tert-Butyl-8-fluoro-2-{2-hydroxymethyl-3-[5-(5-{[(2-methoxy-ethyl)-methyl-amino]-methyl}-pyridin-2-ylamino)-1-methyl-6-oxo-1,6-dihydro-pyridazin-3-yl]-phenyl}-2H-phthalazin-1-one], the IC50 came to 14 nM.

With `Cn1nc(-c2cccc(-n3ncc4cc(C(C)(C)C)cc(F)c4c3=O)c2CO)cc(Nc2ccc(C(=O)N3CC4(COC4)C3)cn2)c1=O` [I-49, 2-(3-(5-(5-(2-oxa-6-azaspiro[3.3]heptane-6-carbonyl)pyridin-2-ylamino)-1-methyl-6-oxo-1,6-dihydropyridazin-3-yl)-2-(hydroxymethyl)phenyl)-6-tert-butyl-8-fluorophthalazin-1(2H)-one], the IC50 stood at 85 nM.

On to `CN1C[C@H]2CC[C@@H](C1)N2c1ccc(Nc2cc(-c3cccc(-n4ncc5cc(C(C)(C)C)cc(F)c5c4=O)c3CO)nn(C)c2=O)nc1` [I-66, 6-tert-Butyl-8-fluoro-2-(2-hydroxymethyl-3-{1-methyl-5-[5-((1R,5S)-3-methyl-3,8-diaza-bicyclo[3.2.1]oct-8-yl)-pyridin-2-ylamino]-6-oxo-1,6-dihydro-pyridazin-3-yl}-phenyl)-2H-phthalazin-1-one], for which the IC50 worked out at 23 nM.

The assay is the same for the next values; noted with them: Homo sapiens, 20 h, read-out: Human Whole Blood.
For the molecule `Cn1nc(-c2cccc(-n3ncc4cc(C(C)(C)C)cc(F)c4c3=O)c2CO)cc(Nc2ccc(C(=O)N3CCOCC3)cn2)c1=O` [I-2, 6-tert-Butyl-8-fluoro-2-(2-hydroxymethyl-3-{1-methyl-5-[5-(morpholine-4-carbonyl)-pyridin-2-ylamino]-6-oxo-1,6-dihydro-pyridazin-3-yl}-phenyl)-2H-phthalazin-1-one], the IC50 stood at 14 nM.
